System: IGROV1 complex spheroids (HUVEC, MSC), viability % test/control
Assay: Anticancer human tumor IGROV1 cell line growth inhibition [GQUAD];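 further: spheroids exposed to compounds for 7 days before readout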;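 on viability, T/C: 100% = DMSO vehicle control viability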
Details: for IC50: curve of first compound; for viability, T/C: stronger effect = lower value
Outline: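 Multi-cell-type spheroids of tumor cells with HUVEC and mesenchymal stem cells, treated with drug combinations. Concentrations descend in half-log steps from near clinical Cmax, or from 10 microM where Cmax is unknown; viability read-out.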

[1] = second compound 0.0316 µM, first compound 0.0316 µM
[2] = second compound 0.0316 µM, first compound 0.1 µM
[3] = second compound 0.0316 µM, first compound 0.316 µM
[4] = second compound 0.0316 µM, first compound 1 µM
[5] = second compound 0.0316 µM, first compound 3.16 µM
[6] = second compound 0.0316 µM, first compound 10 µM
[7] = second compound 0.1 µM, first compound 0.0316 µM
[8] = second compound 0.1 µM, first compound 0.1 µM
[9] = second compound 0.1 µM, first compound 0.316 µM
[10] = second compound 0.1 µM, first compound 1 µM
[11] = second compound 0.1 µM, first compound 3.16 µM
[12] = second compound 0.1 µM, first compound 10 µM
[13] = second compound 0.316 µM, first compound 0.0316 µM
[14] = second compound 0.316 µM, first compound 0.1 µM
[15] = second compound 0.316 µM, first compound 0.316 µM
[16] = second compound 0.316 µM, first compound 1 µM
[17] = second compound 0.316 µM, first compound 3.16 µM
[18] = second compound 0.316 µM, first compound 10 µM
[19] = second compound 1 µM, first compound 0.0316 µM
[20] = second compound 1 µM, first compound 0.1 µM
[21] = second compound 1 µM, first compound 0.316 µM
[22] = second compound 1 µM, first compound 1 µM
[23] = second compound 1 µM, first compound 3.16 µM
[24] = second compound 1 µM, first compound 10 µM
[25] = second compound 3.16 µM, first compound 0.0316 µM
[26] = second compound 3.16 µM, first compound 0.1 µM
[27] = second compound 3.16 µM, first compound 0.316 µM
[28] = second compound 3.16 µM, first compound 1 µM
[29] = second compound 3.16 µM, first compound 3.16 µM
[30] = second compound 3.16 µM, first compound 10 µM
[31] = second compound 10 µM, first compound 0.0316 µM
[32] = second compound 10 µM, first compound 0.1 µM
[33] = second compound 10 µM, first compound 0.316 µM
[34] = second compound 10 µM, first compound 1 µM
[35] = second compound 10 µM, first compound 3.16 µM
[36] = second compound 10 µM, first compound 10 µM

CC1COCCN1c1cc(C2(O)CC3CCC(C2)O3)c2cnn(-c3ccn[nH]3)c2n1 (centres undefined) + Cc1cnc(CNC(=O)c2c(=O)c3ccc(N4CCCN(C)CC4)nc3n3c2sc2ccccc23)cn1 showed an IC50 (second compound 0.0316 µM) of under 0.0316 µM, an IC50 (second compound 0.1 µM) of under 0.0316 µM and an IC50 (second compound 0.316 µM) of under 0.0316 µM. The IC50 (second compound 1 µM) was under 0.0316 µM, the IC50 (second compound 3.16 µM) was under 0.0316 µM and the IC50 (second compound 10 µM) was under 0.0316 µM. It also gave a viability, T/C [1] of 13.8%, a viability, T/C [2] of 8.52% and a viability, T/C [3] of 5.86%. It also gave a viability, T/C [4] of 3.91%, a viability, T/C [5] of 3.41% and a viability, T/C [6] of 2.21%. It also gave a viability, T/C [7] of 10.6%, a viability, T/C [8] of 7.17% and a viability, T/C [9] of 5.58%. The viability, T/C [10] was 4.56%, the viability, T/C [11] was 3.63% and the viability, T/C [12] was 2.02%. For the same compound, the viability, T/C [13] was 8.26%, the viability, T/C [14] was 6.06% and the viability, T/C [15] was 5.61%. For the same compound, the viability, T/C [16] was 4.38%, the viability, T/C [17] was 2.92% and the viability, T/C [18] was 2.02%. The viability, T/C [19] was 5.97%, the viability, T/C [20] was 6.1% and the viability, T/C [21] was 5.48%. For the same compound, the viability, T/C [22] was 3.78%, the viability, T/C [23] was 3.09% and the viability, T/C [24] was 1.97%. For the same compound, the viability, T/C [25] was 5.79%, the viability, T/C [26] was 6.38% and the viability, T/C [27] was 5%. It also gave a viability, T/C [28] of 2.96%, a viability, T/C [29] of 2.76% and a viability, T/C [30] of 1.84%. It also gave a viability, T/C [31] of 5.85%, a viability, T/C [32] of 5.61% and a viability, T/C [33] of 4.3%. For the same compound, the viability, T/C [34] was 4.69%, the viability, T/C [35] was 3.15% and the viability, T/C [36] was 1.81%.
COc1ccc([C@@H](O)c2cc(-c3ncnc4cc(N5CCOCC5)ccc34)c(F)cc2Cl)nn1 + Cc1cnc(CNC(=O)c2c(=O)c3ccc(N4CCCN(C)CC4)nc3n3c2sc2ccccc23)cn1 showed an IC50 (second compound 0.0316 µM) of 0.197 µM, an IC50 (second compound 0.1 µM) of under 0.0316 µM and an IC50 (second compound 0.316 µM) of under 0.0316 µM. The IC50 (second compound 1 µM) was under 0.0316 µM, the IC50 (second compound 3.16 µM) was under 0.0316 µM and the IC50 (second compound 10 µM) was under 0.0316 µM. It also gave a viability, T/C [1] of 62.4%, a viability, T/C [2] of 64.7% and a viability, T/C [3] of 40.7%. It also gave a viability, T/C [4] of 11.1%, a viability, T/C [5] of 5.18% and a viability, T/C [6] of 5.46%. It also gave a viability, T/C [7] of 30.9%, a viability, T/C [8] of 34.5% and a viability, T/C [9] of 18.7%. The viability, T/C [10] was 7.37%, the viability, T/C [11] was 4.79% and the viability, T/C [12] was 3.15%. It also gave a viability, T/C [13] of 25.7%, a viability, T/C [14] of 25.2% and a viability, T/C [15] of 14.1%. For the same compound, the viability, T/C [16] was 6.16%, the viability, T/C [17] was 4.16% and the viability, T/C [18] was 3.4%. For the same compound, the viability, T/C [19] was 19.7%, the viability, T/C [20] was 17.8% and the viability, T/C [21] was 16.1%. The viability, T/C [22] was 6.86%, the viability, T/C [23] was 4.58% and the viability, T/C [24] was 2.36%. It also gave a viability, T/C [25] of 12%, a viability, T/C [26] of 9.89% and a viability, T/C [27] of 8.1%. The viability, T/C [28] was 4.31%, the viability, T/C [29] was 3.47% and the viability, T/C [30] was 1.18%. For the same compound, the viability, T/C [31] was 9.31%, the viability, T/C [32] was 9.19% and the viability, T/C [33] was 9.26%. For the same compound, the viability, T/C [34] was 4.56%, the viability, T/C [35] was 2.94% and the viability, T/C [36] was 1.32%.
